Experimental data published in ChEMBL document CHEMBL1138027, “Dimethoxybenzo[i]phenanthridine-12-carboxylic acid derivatives and 6H-dibenzo[c,h][2,6]naphthyridin-5-ones with potent topoisomerase I-targeting activity and cytotoxicity” (Bioorg Med Chem Lett, 2004).

test system: KB; assay: Concentration required to inhibit cell proliferation in KBV-1 tumor cell line; overexpress MDR1; assay type: functional, cell-based; conditions: Homo sapiens

Compound	IC50 [nM]
COc1cc2c3cnc4cc5c(cc4c3c(=O)n(CCN3CCCCC3)c2cc1OC)OCO5	6
CC[C@@]1(O)C(=O)OCc2c1cc1n(c2=O)Cc2cc3ccccc3nc2-1 [CAMPTOTHECIN]	20
COc1cc2c(=O)n(CCN(C)C)c3c4cc5c(cc4ncc3c2cc1OC)OCO5	5
CCN(CC)CCn1c(=O)c2c3cc4c(cc3ncc2c2cc(OC)c(OC)cc21)OCO4	10
COc1cc2c3cnc4cc5c(cc4c3c(=O)n(CCCN(C)C)c2cc1OC)OCO5	7
CC[C@@]1(O)C(=O)OCc2c1cc1n(c2=O)Cc2cc3c(CN(C)C)c(O)ccc3nc2-1 [TOPOTECAN]	440

test system: not listed separately; assay: Concentration required to inhibit cell proliferation in P388/CPT-45 tumor cell line; camptothecin resistant; assay type: functional; conditions: Mus musculus, P388CPT45

Compound	IC50 [nM]
COc1cc2c3cnc4cc5c(cc4c3c(=O)n(CCN3CCCCC3)c2cc1OC)OCO5	230
CC[C@@]1(O)C(=O)OCc2c1cc1n(c2=O)Cc2cc3ccccc3nc2-1 [CAMPTOTHECIN]	> 10000
COc1cc2c(=O)n(CCN(C)C)c3c4cc5c(cc4ncc3c2cc1OC)OCO5	230
CCN(CC)CCn1c(=O)c2c3cc4c(cc3ncc2c2cc(OC)c(OC)cc21)OCO4	30
COc1cc2c3cnc4cc5c(cc4c3c(=O)n(CCCN(C)C)c2cc1OC)OCO5	20
CC[C@@]1(O)C(=O)OCc2c1cc1n(c2=O)Cc2cc3c(CN(C)C)c(O)ccc3nc2-1 [TOPOTECAN]	> 10000

test system: KB 3-1; assay: Concentration required to inhibit cell proliferation by 50% in KB3-1 tumor cell line; assay type: functional, cell-based; conditions: Homo sapiens

Compound	IC50 [nM]
COc1cc2c(C(=O)NCCN(C)C)cc3c4cc5c(cc4ncc3c2cc1OC)OCO5	1
COc1cc2c3cnc4cc5c(cc4c3c(=O)n(CCN(C)C)c2cc1OC)OCO5	2
COc1cc2c(C(=O)OCCN(C)C)cc3c4cc5c(cc4ncc3c2cc1OC)OCO5	30
COc1cc2c(C(=O)OCCCN(C)C)cc3c4cc5c(cc4ncc3c2cc1OC)OCO5	500
COc1cc2c(C(=O)NCCCN(C)C)cc3c4cc5c(cc4ncc3c2cc1OC)OCO5	40
CCOC(=O)c1cc2c3cc4c(cc3ncc2c2cc(OC)c(OC)cc12)OCO4	40

test system: not listed separately; assay: Concentration required to inhibit cell proliferation by 50% in P388/CPT-45 tumor cell line; camptothecin resistant; assay type: functional; conditions: Mus musculus, P388CPT45

Compound	IC50 [nM]
COc1cc2c(C(=O)NCCN(C)C)cc3c4cc5c(cc4ncc3c2cc1OC)OCO5	260
COc1cc2c3cnc4cc5c(cc4c3c(=O)n(CCN(C)C)c2cc1OC)OCO5	200
COc1cc2c(C(=O)OCCN(C)C)cc3c4cc5c(cc4ncc3c2cc1OC)OCO5	20
COc1cc2c(C(=O)OCCCN(C)C)cc3c4cc5c(cc4ncc3c2cc1OC)OCO5	140
COc1cc2c(C(=O)NCCCN(C)C)cc3c4cc5c(cc4ncc3c2cc1OC)OCO5	340
CCOC(=O)c1cc2c3cc4c(cc3ncc2c2cc(OC)c(OC)cc12)OCO4	3250

test system: P388; assay: Concentration required to inhibit cell proliferation in P388 tumor cell line; assay type: functional, cell-based; conditions: Mus musculus

Compound	IC50 [nM]
COc1cc2c(C(=O)NCCN(C)C)cc3c4cc5c(cc4ncc3c2cc1OC)OCO5	2
COc1cc2c3cnc4cc5c(cc4c3c(=O)n(CCN(C)C)c2cc1OC)OCO5	2
COc1cc2c(C(=O)OCCN(C)C)cc3c4cc5c(cc4ncc3c2cc1OC)OCO5	10
COc1cc2c(C(=O)OCCCN(C)C)cc3c4cc5c(cc4ncc3c2cc1OC)OCO5	110
COc1cc2c(C(=O)NCCCN(C)C)cc3c4cc5c(cc4ncc3c2cc1OC)OCO5	30
COc1cc2c3cnc4cc5c(cc4c3c(=O)n(CCN3CCCCC3)c2cc1OC)OCO5	3
CC[C@@]1(O)C(=O)OCc2c1cc1n(c2=O)Cc2cc3ccccc3nc2-1 [CAMPTOTHECIN]	10
COc1cc2c(=O)n(CCN(C)C)c3c4cc5c(cc4ncc3c2cc1OC)OCO5	1
CCN(CC)CCn1c(=O)c2c3cc4c(cc3ncc2c2cc(OC)c(OC)cc21)OCO4	3
CCOC(=O)c1cc2c3cc4c(cc3ncc2c2cc(OC)c(OC)cc12)OCO4	40
COc1cc2c3cnc4cc5c(cc4c3c(=O)n(CCCN(C)C)c2cc1OC)OCO5	3
CC[C@@]1(O)C(=O)OCc2c1cc1n(c2=O)Cc2cc3c(CN(C)C)c(O)ccc3nc2-1 [TOPOTECAN]	40

test system: KB 3-1; assay: Concentration required to inhibit cell proliferation in KB3-1 tumor cell line; assay type: functional, cell-based; conditions: Homo sapiens

Compound	IC50 [nM]
COc1cc2c3cnc4cc5c(cc4c3c(=O)n(CCN3CCCCC3)c2cc1OC)OCO5	6
CC[C@@]1(O)C(=O)OCc2c1cc1n(c2=O)Cc2cc3ccccc3nc2-1 [CAMPTOTHECIN]	10
COc1cc2c(=O)n(CCN(C)C)c3c4cc5c(cc4ncc3c2cc1OC)OCO5	5
CCN(CC)CCn1c(=O)c2c3cc4c(cc3ncc2c2cc(OC)c(OC)cc21)OCO4	3
COc1cc2c3cnc4cc5c(cc4c3c(=O)n(CCCN(C)C)c2cc1OC)OCO5	3
CC[C@@]1(O)C(=O)OCc2c1cc1n(c2=O)Cc2cc3c(CN(C)C)c(O)ccc3nc2-1 [TOPOTECAN]	40

test system: RPMI 8402; assay: Concentration required to inhibit cell proliferation in […] tumor cell line; assay type: functional, cell-based; conditions: Homo sapiens

Compound	IC50 [nM]
COc1cc2c(C(=O)NCCN(C)C)cc3c4cc5c(cc4ncc3c2cc1OC)OCO5	3
COc1cc2c3cnc4cc5c(cc4c3c(=O)n(CCN(C)C)c2cc1OC)OCO5	0.7
COc1cc2c(C(=O)OCCN(C)C)cc3c4cc5c(cc4ncc3c2cc1OC)OCO5	30
COc1cc2c(C(=O)OCCCN(C)C)cc3c4cc5c(cc4ncc3c2cc1OC)OCO5	220
COc1cc2c(C(=O)NCCCN(C)C)cc3c4cc5c(cc4ncc3c2cc1OC)OCO5	50
COc1cc2c3cnc4cc5c(cc4c3c(=O)n(CCN3CCCCC3)c2cc1OC)OCO5	1
CC[C@@]1(O)C(=O)OCc2c1cc1n(c2=O)Cc2cc3ccccc3nc2-1 [CAMPTOTHECIN]	6
CCN(CC)CCn1c(=O)c2c3cc4c(cc3ncc2c2cc(OC)c(OC)cc21)OCO4	3
CCOC(=O)c1cc2c3cc4c(cc3ncc2c2cc(OC)c(OC)cc12)OCO4	80
COc1cc2c3cnc4cc5c(cc4c3c(=O)n(CCCN(C)C)c2cc1OC)OCO5	0.5
CC[C@@]1(O)C(=O)OCc2c1cc1n(c2=O)Cc2cc3c(CN(C)C)c(O)ccc3nc2-1 [TOPOTECAN]	20

test system: KB 3-1; assay: Concentration required to inhibit cell proliferation in KBH5.0 tumor cell line; overexpress BCRP; assay type: functional, cell-based; conditions: Homo sapiens

Compound	IC50 [nM]
COc1cc2c3cnc4cc5c(cc4c3c(=O)n(CCN3CCCCC3)c2cc1OC)OCO5	7
CC[C@@]1(O)C(=O)OCc2c1cc1n(c2=O)Cc2cc3ccccc3nc2-1 [CAMPTOTHECIN]	20
COc1cc2c(=O)n(CCN(C)C)c3c4cc5c(cc4ncc3c2cc1OC)OCO5	6
CCN(CC)CCn1c(=O)c2c3cc4c(cc3ncc2c2cc(OC)c(OC)cc21)OCO4	5
COc1cc2c3cnc4cc5c(cc4c3c(=O)n(CCCN(C)C)c2cc1OC)OCO5	4
CC[C@@]1(O)C(=O)OCc2c1cc1n(c2=O)Cc2cc3c(CN(C)C)c(O)ccc3nc2-1 [TOPOTECAN]	440

test system: KB; assay: Concentration required to inhibit cell proliferation by 50% in KBV-1 tumor cell line; overexpress MDR1; assay type: functional, cell-based; conditions: Homo sapiens

Compound	IC50 [nM]
COc1cc2c(C(=O)NCCN(C)C)cc3c4cc5c(cc4ncc3c2cc1OC)OCO5	100
COc1cc2c3cnc4cc5c(cc4c3c(=O)n(CCN(C)C)c2cc1OC)OCO5	4
COc1cc2c(C(=O)OCCN(C)C)cc3c4cc5c(cc4ncc3c2cc1OC)OCO5	220
COc1cc2c(C(=O)OCCCN(C)C)cc3c4cc5c(cc4ncc3c2cc1OC)OCO5	2000
COc1cc2c(C(=O)NCCCN(C)C)cc3c4cc5c(cc4ncc3c2cc1OC)OCO5	4500
CCOC(=O)c1cc2c3cc4c(cc3ncc2c2cc(OC)c(OC)cc12)OCO4	340

test system: RPMI 8402; assay: Concentration required to inhibit cell proliferation in CPT-K5 tumor cell line; camptothecin resistant; assay type: functional, cell-based; conditions: Homo sapiens

Compound	IC50 [nM]
COc1cc2c(C(=O)NCCN(C)C)cc3c4cc5c(cc4ncc3c2cc1OC)OCO5	1000
COc1cc2c3cnc4cc5c(cc4c3c(=O)n(CCN(C)C)c2cc1OC)OCO5	210
COc1cc2c(C(=O)OCCN(C)C)cc3c4cc5c(cc4ncc3c2cc1OC)OCO5	730
COc1cc2c(C(=O)OCCCN(C)C)cc3c4cc5c(cc4ncc3c2cc1OC)OCO5	1500
COc1cc2c(C(=O)NCCCN(C)C)cc3c4cc5c(cc4ncc3c2cc1OC)OCO5	2050
COc1cc2c3cnc4cc5c(cc4c3c(=O)n(CCN3CCCCC3)c2cc1OC)OCO5	1500
CC[C@@]1(O)C(=O)OCc2c1cc1n(c2=O)Cc2cc3ccccc3nc2-1 [CAMPTOTHECIN]	> 10000
COc1cc2c(=O)n(CCN(C)C)c3c4cc5c(cc4ncc3c2cc1OC)OCO5	900
CCN(CC)CCn1c(=O)c2c3cc4c(cc3ncc2c2cc(OC)c(OC)cc21)OCO4	900
CCOC(=O)c1cc2c3cc4c(cc3ncc2c2cc(OC)c(OC)cc12)OCO4	> 10000
COc1cc2c3cnc4cc5c(cc4c3c(=O)n(CCCN(C)C)c2cc1OC)OCO5	200
CC[C@@]1(O)C(=O)OCc2c1cc1n(c2=O)Cc2cc3c(CN(C)C)c(O)ccc3nc2-1 [TOPOTECAN]	> 10000

test system: KB 3-1; assay: Concentration required to inhibit cell proliferation by 50% in KBH5.0 tumor cell line; overexpress BCRP; assay type: functional, cell-based; conditions: Homo sapiens

Compound	IC50 [nM]
COc1cc2c(C(=O)NCCN(C)C)cc3c4cc5c(cc4ncc3c2cc1OC)OCO5	30
COc1cc2c3cnc4cc5c(cc4c3c(=O)n(CCN(C)C)c2cc1OC)OCO5	4
COc1cc2c(C(=O)OCCN(C)C)cc3c4cc5c(cc4ncc3c2cc1OC)OCO5	70
COc1cc2c(C(=O)OCCCN(C)C)cc3c4cc5c(cc4ncc3c2cc1OC)OCO5	600
COc1cc2c(C(=O)NCCCN(C)C)cc3c4cc5c(cc4ncc3c2cc1OC)OCO5	500
CCOC(=O)c1cc2c3cc4c(cc3ncc2c2cc(OC)c(OC)cc12)OCO4	110

target: T1, DNA topoisomerase 1 (Homo sapiens) (UniProt P11387); assay: Relative effective concentration to cleave plasmid DNA with human topoisomerase I; compared to camptothecin=1; conditions: not given
T1 sequence (whole entry): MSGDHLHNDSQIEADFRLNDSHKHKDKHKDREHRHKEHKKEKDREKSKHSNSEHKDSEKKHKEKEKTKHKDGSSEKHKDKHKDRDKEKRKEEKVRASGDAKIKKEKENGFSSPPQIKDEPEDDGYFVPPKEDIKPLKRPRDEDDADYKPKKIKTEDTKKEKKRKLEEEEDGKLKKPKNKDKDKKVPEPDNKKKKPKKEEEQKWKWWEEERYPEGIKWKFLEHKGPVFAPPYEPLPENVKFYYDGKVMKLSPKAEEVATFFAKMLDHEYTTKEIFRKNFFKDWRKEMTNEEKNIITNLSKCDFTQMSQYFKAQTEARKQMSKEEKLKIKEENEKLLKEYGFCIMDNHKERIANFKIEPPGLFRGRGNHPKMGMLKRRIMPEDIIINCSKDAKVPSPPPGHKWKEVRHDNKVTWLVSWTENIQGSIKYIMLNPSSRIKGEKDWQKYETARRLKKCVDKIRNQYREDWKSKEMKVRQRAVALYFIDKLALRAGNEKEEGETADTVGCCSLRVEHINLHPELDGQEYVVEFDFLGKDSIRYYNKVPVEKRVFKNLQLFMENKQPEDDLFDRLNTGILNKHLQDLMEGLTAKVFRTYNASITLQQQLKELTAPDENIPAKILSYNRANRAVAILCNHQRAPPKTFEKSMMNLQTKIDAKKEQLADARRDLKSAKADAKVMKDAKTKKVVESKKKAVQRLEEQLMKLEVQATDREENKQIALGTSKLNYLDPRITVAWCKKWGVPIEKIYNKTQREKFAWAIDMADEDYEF

Compound	REC
COc1cc2c(C(=O)NCCN(C)C)cc3c4cc5c(cc4ncc3c2cc1OC)OCO5	0.5
COc1cc2c3cnc4cc5c(cc4c3c(=O)n(CCN(C)C)c2cc1OC)OCO5	3
COc1cc2c(C(=O)OCCN(C)C)cc3c4cc5c(cc4ncc3c2cc1OC)OCO5	5
COc1cc2c(C(=O)OCCCN(C)C)cc3c4cc5c(cc4ncc3c2cc1OC)OCO5	7
COc1cc2c(C(=O)NCCCN(C)C)cc3c4cc5c(cc4ncc3c2cc1OC)OCO5	30
COc1cc2c3cnc4cc5c(cc4c3c(=O)n(CCN3CCCCC3)c2cc1OC)OCO5	0.1
CC[C@@]1(O)C(=O)OCc2c1cc1n(c2=O)Cc2cc3ccccc3nc2-1 [CAMPTOTHECIN]	1
CCN(CC)CCn1c(=O)c2c3cc4c(cc3ncc2c2cc(OC)c(OC)cc21)OCO4	0.7
CCOC(=O)c1cc2c3cc4c(cc3ncc2c2cc(OC)c(OC)cc12)OCO4	12
COc1cc2c3cnc4cc5c(cc4c3c(=O)n(CCCN(C)C)c2cc1OC)OCO5	3
CC[C@@]1(O)C(=O)OCc2c1cc1n(c2=O)Cc2cc3c(CN(C)C)c(O)ccc3nc2-1 [TOPOTECAN]	5
